{"source": "patent US6645959B1", "about": "“Method for treating postoperative ileus” (Warner-Lambert Company, priority 2000, dated 2003)", "key": {"rats [1]": {"system": "rats", "assay": "Reproductive performance and fertility studies in rats", "assay_type": "in vivo"}, "[2]": {"assay": "Oral pharmacokinetics in the dog", "assay_type": "in vivo", "excerpt": "(§1) There is a marked food effect with absorption reduced by >50% in dogs after a meal."}, "[3]": {"system": "aquaretic action (V2 receptor antagonism)", "assay": "Aquaretic action in normal subjects (V2 receptor antagonism)", "assay_type": "in vivo, human"}, "[4]": {"system": "AVP-induced platelet aggregation (V1A antagonist activity)", "assay": "AVP-induced platelet aggregation in Phase 1 subjects", "assay_type": "in vivo, human", "conditions": "subjects at 20 mg/day orally or 2.5 mg IV"}, "rats [5]": {"system": "rats", "conditions": "rat, in vivo, 2.5 mg/kg"}, "[6]": {"assay": "Pharmacokinetics in healthy subjects (Phase 1)"}, "[7]": {"system": "AVP-induced dermal vasoconstriction", "assay": "AVP-induced dermal vasoconstriction in Phase 1 subjects", "assay_type": "in vivo, human", "conditions": "subjects at 50 mg IV"}, "rabbits": {"system": "rabbits", "assay": "Teratogenicity in rabbits", "assay_type": "in vivo"}, "rats [8]": {"system": "rats", "assay": "Teratogenicity in rats", "assay_type": "in vivo"}, "human lymphocytes": {"system": "human lymphocytes", "assay": "Clastogenicity in human lymphocytes in vitro", "assay_type": "cell-based"}, "bacteria": {"system": "bacteria", "assay": "Mutagenicity in bacteria", "assay_type": "cell-based"}, "[9]": {"assay": "Oral pharmacokinetics in the rat", "assay_type": "in vivo", "excerpt": "as §1"}, "[10]": {"system": "AVP-induced pressor response (V1A antagonism)", "assay": "Antagonism of AVP-induced pressor response in dogs (IV)", "assay_type": "in vivo"}, "dogs": {"system": "dogs", "conditions": "dog, in vivo, 2 mg/kg"}, "bone marrow of rats": {"system": "bone marrow of rats", "assay": "Clastogenicity in bone marrow of rats", "assay_type": "in vivo"}, "female rats": {"system": "female rats", "conditions": "13-week oral study, all doses"}, "healthy subjects": {"system": "healthy subjects", "assay": "Safety in Phase 1 subjects", "assay_type": "in vivo, human", "excerpt": "These observations were considered related to antagonism of V2 receptors and not a safety concern. Vital signs (blood pressure and heart rate) were unaffected by YM087."}, "bone marrow in dogs": {"system": "bone marrow in dogs", "assay": "2- and 13-week oral toxicity studies in dogs", "assay_type": "in vivo"}, "[11]": {"system": "AVP-induced pressor response (V1A antagonism)", "assay": "Antagonism of AVP-induced pressor response in rats (oral)", "assay_type": "in vivo", "conditions": "given orally to rats"}, "[12]": {"system": "urinary output (V2 antagonism)", "assay": "Urinary output and osmolality in conscious dogs (V2 antagonism)", "assay_type": "in vivo"}, "[13]": {"system": "dogs with heart failure induced by rapid right ventricular pacing", "assay": "Heart failure induced by rapid right ventricular pacing in dogs", "assay_type": "in vivo", "conditions": "IV 0.1 mg/kg"}, "[14]": {"conditions": "oral 20 mg, single dose combination"}}, "note": "Structures can show the parent of a compound that is named as a salt.", "data": [{"molecule": "Cc1nc2c([nH]1)-c1ccccc1N(C(=O)c1ccc(NC(=O)c3ccccc3-c3ccccc3)cc1)CC2", "note": "[YM087, N-[4-(2-methyl-4,5,6-tetrahydromidazo [4,5-d][1]benzazepin-6-ylcarbonyl)phenyl]biphenyl-2-carboxamide hydrochloride]", "values": [{"measurement": "female fertility findings", "setting": "rats [1]; females given 100 mg/kg orally for 2 weeks prior to mating with untreated males", "result": "reduced fertility index, increased implantation loss, and decreased live fetuses"}, {"measurement": "reproductive performance of male rats", "setting": "rats [1]; male rats", "result": "did not affect"}, {"measurement": "half-life", "setting": "[2]; in vivo, dogs, read-out: elimination half-life (converted)", "result": 2, "unit": "h"}, {"measurement": "time to peak concentrations", "setting": "[2]; oral", "result": 1, "unit": "h"}, {"measurement": "tolerability of aquaretic effects", "setting": "[3]; 120 mg QD or 60 mg BID orally or 50 mg IV, normal subjects", "result": "too uncomfortable in normal subjects to be tolerable"}, {"measurement": "duration of increased urine production rate postdosing", "setting": "[3]; IV 50 mg/day", "result": "≤ 6", "unit": "h"}, {"measurement": "duration of increased urine production rate postdosing", "setting": "[3]; IV doses up to 250 μg/kg", "result": "up to 3 hours"}, {"measurement": "dose at which aquaretic action with decrease in urine osmolarity starts", "setting": "[3]; IV, normal subjects", "result": 0.05, "unit": "mg/kg"}, {"measurement": "dose at which aquaretic action with decrease in urine osmolarity starts", "setting": "[3]; oral, normal subjects", "result": 15, "unit": "mg"}, {"measurement": "AVP-induced platelet aggregation", "setting": "[4]", "result": "Inhibition of AVP-induced platelet aggregation"}, {"measurement": "toxicity in 4-week IV study", "setting": "rats [5]", "result": "No toxicity was observed"}, {"measurement": "half-life", "setting": "[6]; human, plasma", "result": "4 to 5", "unit": "h"}, {"measurement": "bioavailability", "setting": "[6]; human, plasma, oral", "result": "43 to 59", "unit": "%"}, {"measurement": "Tmax", "setting": "[6]; human, plasma, po", "result": "~1", "unit": "h"}, {"measurement": "bioavailability", "setting": "[6]; human, plasma, po, 60 mg", "result": 44, "unit": "%"}, {"measurement": "effect of 0.5 mg IV digoxin on pharmacokinetics", "setting": "[6]; [14]", "result": "not affected"}, {"measurement": "effect of 25 mg oral captopril on pharmacokinetics", "setting": "[6]; [14]", "result": "not affected"}, {"measurement": "plasma levels after the second dose", "setting": "[6]; repeated BID oral doses, 60 mg", "result": "unexpectedly high plasma levels"}, {"measurement": "AVP-induced dermal vasoconstriction", "setting": "[7]", "result": "Total inhibition"}, {"measurement": "teratogenicity", "setting": "rabbits", "result": "not teratogenic"}, {"measurement": "teratogenicity", "setting": "rats [8]", "result": "not teratogenic"}, {"measurement": "clastogenicity", "setting": "human lymphocytes", "result": "not clastogenic"}, {"measurement": "mutagenicity", "setting": "bacteria", "result": "not mutagenic"}, {"measurement": "half-life", "setting": "[9]; in vivo, rats, read-out: elimination half-life (converted)", "result": 1, "unit": "h"}, {"measurement": "time to peak concentrations", "setting": "[9]; oral", "result": 0.5, "unit": "h"}, {"measurement": "ID50 (dose that reduced the AVP response by 50%)", "setting": "[10]", "result": 0.026, "unit": "mg/kg"}, {"measurement": "toxicity in 4-week IV study", "setting": "dogs", "result": "No toxicity was observed"}, {"measurement": "clastogenicity", "setting": "bone marrow of rats", "result": "not clastogenic"}, {"measurement": "uterine weights", "setting": "female rats", "result": "decreased at all doses"}, {"measurement": "overall safety", "setting": "healthy subjects; approximately 250 subjects treated", "result": "no major safety concerns were identified"}, {"measurement": "urinary and plasma osmolarity at higher doses", "setting": "healthy subjects; higher doses, related to V2 antagonism", "result": "urinary osmolarity decreased and plasma osmolarity increased"}, {"measurement": "biochemical or hematological laboratory parameters", "setting": "healthy subjects; human, in vivo", "result": "No drug-related trend was observed"}, {"measurement": "other adverse events", "setting": "healthy subjects; human, in vivo", "result": "flushes, a sensation of cold extremities, abdominal complaints, abnormal stools, syncope, dizziness, palpitations, and postural hypotension"}, {"measurement": "vital signs (blood pressure and heart rate)", "setting": "healthy subjects; human, in vivo", "result": "unaffected"}, {"measurement": "serious event in patient with severe congestive heart failure", "setting": "healthy subjects; one patient, 80 mg/day for 4 days", "result": "generalized tonic clonic seizure"}, {"measurement": "number of subjects with minor reversible decreases in white blood cell count", "setting": "healthy subjects; one subject on placebo also affected", "result": "Three"}, {"measurement": "most frequent adverse events", "setting": "healthy subjects; regardless of treatment association", "result": "mild or moderate thirst and mild headache"}, {"measurement": "peripheral blood counts", "setting": "bone marrow in dogs; affected dogs, 13-week oral study", "result": "Decreased peripheral erythrocyte, leukocyte, and/or platelet counts"}, {"measurement": "reversibility of bone marrow and peripheral blood changes", "setting": "bone marrow in dogs; dogs", "result": "reversible"}, {"measurement": "ID50 (dose that reduced the AVP response by 50%)", "setting": "[11]", "result": 0.32, "unit": "mg/kg"}, {"measurement": "urinary output", "setting": "[12]; conscious dogs, oral 0.03 to 0.3 mg/kg, dose-related", "result": "increased urinary output"}, {"measurement": "urinary osmolality", "setting": "[12]; conscious dogs, oral 0.03 to 0.3 mg/kg, reduced from 1500", "result": "< 100", "unit": "mOsm/kg H2O"}, {"measurement": "effect on urinary sodium (Na) or potassium (K) excretion", "setting": "[12]; unlike furosemide", "result": "little or no effect"}, {"measurement": "cardiac function", "setting": "[13]", "result": "significantly improved the depressed cardiac function"}, {"measurement": "water diuresis", "setting": "[13]", "result": "produced a water diuresis"}]}]}
